Source: patent publication US5916881A, “High trehalose content syrup” (Kabushiki Kaisha Hayashibara Seibutsu Kagaku Kenkyujo, priority 1996, dated 1999)

Columns and labels:
[1] = Influence of the concentrations of trehalose and of mono-/diglucosyltrehalose on trehalose crystallization (Experiment 3); type: physicochemical; parameters: key to Formation of trehalose crystal: "+" means that it crystallized; "-" means that it did not
Method: The trehalose crystallization inhibitory effect was experimented by dissolving trehalose under heating conditions in water in an amount of 1.5, 2.0, 2.5, 2.8 or 3.3-times the water solubility at 10° C., dissolving in the solution other oligosaccharides having a trehalose structure within their molecules in an amount of 10, 30 or 60% to the trehalose, d.s.b, and allowing the resultant solution to stand at a relatively-low temperature.
Based on the results in Experiment 1, 1.5, 2.0, 2.5, 2.8 and 3.3-times the water solubility of trehalose in 100 parts by weight of water at 10° C. water corresponded to 83, 111, 138, 155 and 182 parts by weight of trehalose anhydride, d.s.b., respectively With this relationship, testing solutions with the composition as shown in Table 3 were prepared by dissolving under heating conditions in a respective glass beaker 100 parts by weight of water, trehalose in a prescribed part by weight, and either monoglucosyltrehalose, i.e., α-glucosyltrehalose or diglucosyltrehalose, i.e., α-maltosyltrehalose in a prescribed ratio, allowing the solution to stand in a thermostatic place kept at 5, 10 or 15° C. for checking the trehalose crystallization inhibitory effect.

[2] = Trehalose crystallization inhibitory effect of coexisting saccharides in a trehalose syrup over the water solubility (Experiment 2); type: physicochemical; details: trehalose dissolved in an amount over the water solubility; summary of Table 2
Method: Trehalose was dissolved by heating in water in an amount of 1.5-times the water solubility at 10° C., and the trehalose solution was allowed to stand at a relatively-cold place for checking the trehalose crystallization inhibitory effect by saccharides. […] With this relationship, testing solutions were prepared by dissolving by heating in 100 parts by weight of water in a respective glass beaker 83 parts by weight of trehalose, and a saccharide in an amount of 10% to the trehalose, i.e., 8.3 parts by weight of the saccharide selected from the group consisting of glucose, maltose, isomaltose, lactose, maltotriose, panose, maltotetraose, sorbitol, maltitol, maltotriitol, sucrose, raffinose, erlose, saccharides such as α-glucosyltrehalose or monoglucosyltrehalose, α-maltosyltrehalose or diglucosyltrehalose, and α-maltotriosyltrehalose or triglucosyltrehalose as disclosed in Japanese Patent Kokai No.143,876/95 by the present applicant; a saccharide such as α-isomaltosyl-α-glucoside or monoglucosyltrehalose as disclosed in Japanese Patent Kokai No.217,784/96 by the same applicant; and a saccharide such as α-maltosyl-α-maltoside or diglucosyltrehalose as disclosed in Japanese Patent Application No.167,486/94 by the same applicant. Each solution was allowed to stand in a thermostatic place kept at 5, 10 or 15° C. for one week, followed by macroscopically observing the presence of trehalose crystal for evaluating the trehalose crystallization inhibitory effect by the saccharides.

OC[C@H]1O[C@H](O[C@H]2O[C@H](CO)[C@@H](O[C@H]3O[C@H](CO)[C@@H](O)[C@H](O)[C@H]3O)[C@H](O)[C@H]2O)[C@H](O)[C@@H](O)[C@@H]1O [α-Glycosyltrehalose, α-glucosyltrehalose]
Trehalose crystallization inhibitory effect (in words) ([1]; summary of Table 3): satisfactory trehalose crystallization inhibitory effect | Formation of trehalose crystal ([1]; water 100, trehalose 83, coexisting saccharide 8.3 parts by weight, 5° C. (1.7-times solubility)): - | Formation of trehalose crystal ([1]; water 100, trehalose 83, coexisting saccharide 8.3 parts by weight, 10° C. (1.5-times solubility)): - | Formation of trehalose crystal ([1]; water 100, trehalose 83, coexisting saccharide 8.3 parts by weight, 15° C. (1.3-times solubility)): - | Formation of trehalose crystal ([1]; water 100, trehalose 83, coexisting saccharide 25 parts by weight, 5° C. (1.7-times solubility)): - | Formation of trehalose crystal ([1]; water 100, trehalose 83, coexisting saccharide 25 parts by weight, 10° C. (1.5-times solubility)): - | Formation of trehalose crystal ([1]; water 100, trehalose 83, coexisting saccharide 25 parts by weight, 15° C. (1.3-times solubility)): - | Formation of trehalose crystal ([1]; water 100, trehalose 83, coexisting saccharide 50 parts by weight, 5° C. (1.7-times solubility)): - | Formation of trehalose crystal ([1]; water 100, trehalose 83, coexisting saccharide 50 parts by weight, 10° C. (1.5-times solubility)): - | Formation of trehalose crystal ([1]; water 100, trehalose 83, coexisting saccharide 50 parts by weight, 15° C. (1.3-times solubility)): - | Formation of trehalose crystal ([1]; water 100, trehalose 111, coexisting saccharide 11 parts by weight, 5° C. (2.2-times solubility)): + | Formation of trehalose crystal ([1]; water 100, trehalose 111, coexisting saccharide 11 parts by weight, 10° C. (2.0-times solubility)): - | Formation of trehalose crystal ([1]; water 100, trehalose 111, coexisting saccharide 11 parts by weight, 15° C. (1.8-times solubility)): - | Formation of trehalose crystal ([1]; water 100, trehalose 111, coexisting saccharide 33 parts by weight, 5° C. (2.2-times solubility)): - | Formation of trehalose crystal ([1]; water 100, trehalose 111, coexisting saccharide 33 parts by weight, 10° C. (2.0-times solubility)): - | Formation of trehalose crystal ([1]; water 100, trehalose 111, coexisting saccharide 33 parts by weight, 15° C. (1.8-times solubility)): - | Formation of trehalose crystal ([1]; water 100, trehalose 111, coexisting saccharide 66 parts by weight, 5° C. (2.2-times solubility)): - | Formation of trehalose crystal ([1]; water 100, trehalose 111, coexisting saccharide 66 parts by weight, 10° C. (2.0-times solubility)): - | Formation of trehalose crystal ([1]; water 100, trehalose 111, coexisting saccharide 66 parts by weight, 15° C. (1.8-times solubility)): - | Formation of trehalose crystal ([1]; water 100, trehalose 138, coexisting saccharide 14 parts by weight, 5° C. (2.8-times solubility)): + | Formation of trehalose crystal ([1]; water 100, trehalose 138, coexisting saccharide 14 parts by weight, 10° C. (2.5-times solubility)): + | Formation of trehalose crystal ([1]; water 100, trehalose 138, coexisting saccharide 14 parts by weight, 15° C. (2.2-times solubility)): - | Formation of trehalose crystal ([1]; water 100, trehalose 138, coexisting saccharide 42 parts by weight, 5° C. (2.8-times solubility)): + | Formation of trehalose crystal ([1]; water 100, trehalose 138, coexisting saccharide 42 parts by weight, 10° C. (2.5-times solubility)): + | Formation of trehalose crystal ([1]; water 100, trehalose 138, coexisting saccharide 42 parts by weight, 15° C. (2.2-times solubility)): - | Formation of trehalose crystal ([1]; water 100, trehalose 138, coexisting saccharide 83 parts by weight, 5° C. (2.8-times solubility)): + | Formation of trehalose crystal ([1]; water 100, trehalose 138, coexisting saccharide 83 parts by weight, 10° C. (2.5-times solubility)): + | Formation of trehalose crystal ([1]; water 100, trehalose 138, coexisting saccharide 83 parts by weight, 15° C. (2.2-times solubility)): - | Formation of trehalose crystal ([1]; water 100, trehalose 155, coexisting saccharide 16 parts by weight, 5° C. (3.1-times solubility)): + | Formation of trehalose crystal ([1]; water 100, trehalose 155, coexisting saccharide 16 parts by weight, 10° C. (2.8-times solubility)): + | Formation of trehalose crystal ([1]; water 100, trehalose 155, coexisting saccharide 16 parts by weight, 15° C. (2.5-times solubility)): + | Formation of trehalose crystal ([1]; water 100, trehalose 155, coexisting saccharide 46 parts by weight, 5° C. (3.1-times solubility)): + | Formation of trehalose crystal ([1]; water 100, trehalose 155, coexisting saccharide 46 parts by weight, 10° C. (2.8-times solubility)): + | Formation of trehalose crystal ([1]; water 100, trehalose 155, coexisting saccharide 46 parts by weight, 15° C. (2.5-times solubility)): + | Formation of trehalose crystal ([1]; water 100, trehalose 155, coexisting saccharide 93 parts by weight, 5° C. (3.1-times solubility)): + | Formation of trehalose crystal ([1]; water 100, trehalose 155, coexisting saccharide 93 parts by weight, 10° C. (2.8-times solubility)): + | Formation of trehalose crystal ([1]; water 100, trehalose 155, coexisting saccharide 93 parts by weight, 15° C. (2.5-times solubility)): + | Formation of trehalose crystal ([1]; water 100, trehalose 182, coexisting saccharide 18 parts by weight, 5° C. (3.7-times solubility)): + | Formation of trehalose crystal ([1]; water 100, trehalose 182, coexisting saccharide 18 parts by weight, 10° C. (3.3-times solubility)): + | Formation of trehalose crystal ([1]; water 100, trehalose 182, coexisting saccharide 18 parts by weight, 15° C. (3.0-times solubility)): + | Formation of trehalose crystal ([1]; water 100, trehalose 182, coexisting saccharide 55 parts by weight, 5° C. (3.7-times solubility)): + | Formation of trehalose crystal ([1]; water 100, trehalose 182, coexisting saccharide 55 parts by weight, 10° C. (3.3-times solubility)): + | Formation of trehalose crystal ([1]; water 100, trehalose 182, coexisting saccharide 55 parts by weight, 15° C. (3.0-times solubility)): + | Formation of trehalose crystal ([1]; water 100, trehalose 182, coexisting saccharide 110 parts by weight, 5° C. (3.7-times solubility)): + | Formation of trehalose crystal ([1]; water 100, trehalose 182, coexisting saccharide 110 parts by weight, 10° C. (3.3-times solubility)): + | Formation of trehalose crystal ([1]; water 100, trehalose 182, coexisting saccharide 110 parts by weight, 15° C. (3.0-times solubility)): + | Trehalose crystallization inhibitory effect (in words) [2]: specifically and effectively inhibited
